How the values were obtained:
[1] = biological target: T1, interaction of leupaxin with the focal adhesion targeting sequence of pp125^FAK (FAT) (Homo sapiens, UniProt O60711); experiment: ELISA, leupaxin binding to immobilized FAT; conditions: concentrations up to 100 μM
T1 construct: Recombinant 6×His-FAT, the focal adhesion targeting domain of pp125^FAK; 6xHis (N); made in house; host or cells: E. coli BL21(DE3)pLysS
T1 sequence (O60711 1-386): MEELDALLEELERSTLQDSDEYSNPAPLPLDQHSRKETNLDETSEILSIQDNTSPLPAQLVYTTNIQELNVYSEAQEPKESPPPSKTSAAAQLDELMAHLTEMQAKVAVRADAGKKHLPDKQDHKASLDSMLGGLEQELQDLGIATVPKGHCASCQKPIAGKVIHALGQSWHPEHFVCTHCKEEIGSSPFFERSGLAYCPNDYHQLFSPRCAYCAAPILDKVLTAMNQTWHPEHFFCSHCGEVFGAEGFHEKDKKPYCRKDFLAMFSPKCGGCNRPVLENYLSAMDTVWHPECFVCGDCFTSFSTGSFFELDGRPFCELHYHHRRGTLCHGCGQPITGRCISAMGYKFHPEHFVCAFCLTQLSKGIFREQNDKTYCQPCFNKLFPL
Description: (§1) Thermo Electron High Binding 96 or 384 well plates were coated with 1 μg/ml neutravidin (Pierce) in 0.05M NaHCO3 pH 9.5 over night at 4° C. After blocking with 1% heat inactivated BSA in PBS for 1 hour at room temperature, plates were incubated with 1 μg/ml of recombinant αIIb-tail or α4-tail FAT or Git-1 in 1% BSA in PBS for one hour at room temperature. Plates were washed twice with 0.2% Tween in PBS to remove unbound protein and incubated with 10 μg/ml HA-tagged leupaxin or paxillin in 0.2% Tween/1% BSA in PBS in the presence or absence of small molecule compounds (5 mM DMSO stock solutions). […] Plates were washed twice and bound leupaxin or paxillin was detected by incubating with the first antibody (12CA5 ascites, 1:10,000 in 0.2% Tween/1% BSA in PBS) for 1 hour at room temperature and then with the secondary antibody (HPR-conjugated anti mouse, Biosource, 1:1,000 in 0.2% Tween, 1% BSA, PBS for 1 hour at room temperature. Binding was quantified after addition of ECL solution on a Victor luminescence plate reader. 0% inhibition control was measured with leupaxin and no compound and 100% inhibition control (background) was measured with no leupaxin and no compound. Each well was duplicated and percent inhibition was averaged. (FIG. 1A)

THP-1 cells = experiment: Modified Boyden chamber migration, THP-1 cells on CS-1; format: cell-based; conditions: Homo sapiens, 3 hours, read-out: inhibition of monocyte migration
Description: (§2) Cell migration was assayed in a modified Boyden chamber assay system as described previously (8). For Jurkat T cell migration, transwell (Costar) polycarbonate membranes containing 3-μm pores were coated with 10 μg/ml CS-1, an α4 integrin binding fragment of fibronectin or 20 μg/ml ICAM in 0.1M NaHCO3, pH 8.0 overnight at 4° C. Membranes were blocked with 2% BSA in PBS for 30 minutes at room temperature. 2.0×10^5 Jurkat T cells in RPMI 1640 with 10% fetal bovine serum were added to the top chamber. Stromal-derived factor-1α (SDF-1α, R&D Systems, Minneapolis, Minn.) at a final concentration of 15 ng/ml in RPMI 1640 with 10% fetal bovine serum was added to the bottom chamber. Cells were allowed to migrate for 5 hours at 37° C. Cells in the bottom chamber were enumerated with a hemacytometer. Small molecule inhibitors were added to the top and bottom chamber in the indicated concentrations.
THP-1 cells were cultured in RPMI1640 containing 0.1% fetal bovine serum for 16 hours before 1×10^6 cells were added to the top chamber of transwells with CS1-coated membranes that contained 5-μm pores and allowed to migrate for 3 hours towards RPMI containing 0.1% fetal bovine serum.

Jurkat T cells [2] = experiment: Cytotoxicity assay (CellTiter 96 Aqueous One Solution); format: cell-based; conditions: concentrations up to 100 μM for 24 h
Description: The cytotoxicity effect of compounds on cultivated cells was determined using the CellTiter 96® Aqueous One Solution Cell Proliferation Assay (Promega, Madison, Wis.) according to the manufacturer's guidelines.

Jurkat T cells [3] = experiment: Modified Boyden chamber migration, Jurkat T cells on ICAM-1 (αLβ2-mediated); format: cell-based
Description: as §2

Jurkat T cells [4] = experiment: Spreading assay, Jurkat T cells on CS-1; format: cell-based; conditions: 180 minutes after plating on CS-1
Description: (§3) Cell spreading was performed as described (11, 34). Briefly, CHO cells or Jurkat cells resuspended in Dulbecco's modified Eagle's medium or RPMI 1640, respectively, containing 0.5% fetal bovine serum and 0.2% BSA were plated on coverslips coated with 3 μg/ml GST-CS-1 in 12 well plates in the presence or absence of the small molecule inhibitor. […] The cell area was measured and analyzed using the ImageJ software. At least three independent experiments were performed and in each experiment at least 30 cells were analyzed.

[5] = biological target: T2, interaction of leupaxin with α4-integrin (Homo sapiens, UniProt O60711); experiment: ELISA, leupaxin binding to immobilized α4 tail
T2 construct: Biotinylated α4-integrin cytoplasmic tail was coated to the plates; 6xHis (N); biotin acceptor peptide […]; made in house; host or cells: Escherichia coli
T2 sequence (O60711 1-386): T1 sequence (O60711 1-386)
Description: as §1
Inhibition of the α4 leupaxin interaction was measured using the above described ELISA assay. Biotinylated α4-integrin cytoplasmic tail was coated to the plates and incubated with increasing concentrations of leupaxin in the presence of different concentrations of inhibitor or no inhibitor. The data were fitted to equations for models of competitive, non-competitive, uncompetitive of mixed inhibition using Graph Pad Prism 5.0 to test which model fits the best.

[6] = test system: CHO wildtype cells that do not express α4; experiment: Spreading assay, CHO wildtype cells on fibronectin; format: cell-based, Chinese Hamster; conditions: plated on fibronectin; data not shown
Description: Cell spreading was performed as described (11, 34). Briefly, CHO cells or Jurkat cells resuspended in Dulbecco's modified Eagle's medium or RPMI 1640, respectively, […] presence or absence of the small molecule inhibitor. […] The cell area was measured and analyzed using the ImageJ software. At least three independent experiments were performed and in each experiment at least 30 cells were analyzed.

CHO-S998A cells = experiment: Spreading assay, CHO-S998A cells on CS-1; format: cell-based, Chinese Hamster; conditions: CS-1 coated cover slips, 45 minutes
Description: as §3

C57B1/6 mice = experiment: Thioglycollate-induced peritonitis; format: in vivo
Description: Male C57B1/6 mice 5-6 weeks old were injected intraperitoneally with 1 ml sterile 4% (wt/vol) thioglycollate (Sigma-Aldrich). Mice were injected with 16.5 mg/kg 6-B345TTQ, 6-234TTQ or the equal volume of vehicle only every 8-12 hours. At various time points after injection, mice were sacrificed and subjected to peritoneal lavage with 4 ml PBS containing 5 mM EDTA and 1% BSA. Total leukocytes in lavage samples were enumerated with a hemocytometer. Cells (1×10^5) were attached to glass slides with a Cytospin4 instrument (ThermoSharidon) and stained with modified Wright-Giemsa stain. Differential cell counts were performed on 5 individual fields, each containing 100 cells by light microscopy.

[7] = biological target: T3, interaction of FAT with paxillin (Homo sapiens, UniProt P49023); experiment: ELISA, paxillin binding to immobilized FAT
T3 construct: Recombinant 6×His-FAT, the focal adhesion targeting domain of pp125^FAK; 6xHis (N); made in house; host or cells: E. coli BL21(DE3)pLysS
T3 sequence (P49023 whole entry, the tested form may be a part): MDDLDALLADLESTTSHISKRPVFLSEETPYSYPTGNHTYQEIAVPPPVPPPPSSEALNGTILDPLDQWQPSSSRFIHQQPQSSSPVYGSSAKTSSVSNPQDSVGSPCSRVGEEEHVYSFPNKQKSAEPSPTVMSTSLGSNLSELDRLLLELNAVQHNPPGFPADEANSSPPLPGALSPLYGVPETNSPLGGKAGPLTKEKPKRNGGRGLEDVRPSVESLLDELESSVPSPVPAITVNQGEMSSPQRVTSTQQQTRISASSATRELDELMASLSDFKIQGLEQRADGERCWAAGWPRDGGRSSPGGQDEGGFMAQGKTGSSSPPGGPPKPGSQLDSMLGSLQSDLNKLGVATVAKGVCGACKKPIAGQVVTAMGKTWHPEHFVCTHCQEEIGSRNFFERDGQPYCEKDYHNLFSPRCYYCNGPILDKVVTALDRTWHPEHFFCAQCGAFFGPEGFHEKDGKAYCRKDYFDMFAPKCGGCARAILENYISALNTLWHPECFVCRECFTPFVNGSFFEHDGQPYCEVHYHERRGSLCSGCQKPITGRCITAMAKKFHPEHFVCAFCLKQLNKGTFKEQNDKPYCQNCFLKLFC
Description: as §1

Jurkat T cells [8] = experiment: Modified Boyden chamber migration, Jurkat T cells on CS-1; format: cell-based; conditions: Homo sapiens, 5 hours towards SDF-1α, read-out: inhibition of T-cell migration
Description: as §2

[9] = biological target: T4, native paxillin and α4-integrin (Homo sapiens, UniProt P49023); experiment: Coimmunoprecipitation of α4 with paxillin from Jurkat T cells; format: binding; conditions: anti-biotin blot
T4 construct: endogenous in cells; host or cells: Jurkat T cells
T4 sequence (P49023 whole entry): as the sequence (P49023 whole entry, the tested form may be a part) above
Description: For endogenous Coimmunoprecipitation experiments, Jurkat T-cells were washed in ice-cold PBS and incubated in 1.6 mM Sulfo-NHS-Biotin (Pierce, Chemical Co.) for 30 minutes at room temperature. Excess biotin was quenched and washed from the cells with PBS/Glycine. Cell lysates were then prepared with lysis buffer containing 20 mM Tris, pH 7.4, 150 mM NaCl, 10 mM EDTA, 1% Triton X-100, 0.05% Tween 20 and a protease inhibitor cocktail (Roche Diagnostics Corp.). Lysate containing 200 μg total cell protein was immunoprecipitated using 2 μg rabbit anti paxillin (RB-4358). Immunoprecipitated proteins were separated by SDS-PAGE (8% Bis-Tris, denaturating and reducing) and transferred to nitrocellulose membranes. Precipitated, biotinylated proteins were detected using HRP-Streptavidin (1:10,000).

[10] = biological target: T5, interaction of paxillin with α4-integrin (Homo sapiens, UniProt P49023); experiment: ELISA, paxillin binding to immobilized α4 tail; conditions: 10 μg/ml paxillin; read-out: IC50, inhibition of paxillin binding to α4-integrin
T5 construct: 6xHis (N); biotin acceptor peptide […]; made in house; host or cells: Escherichia coli
T5 sequence (P49023 whole entry): as the sequence (P49023 whole entry, the tested form may be a part) above
Description: as §1

[11] = biological target: interaction of GIT-1 with paxillin (Homo sapiens, UniProt P49023); experiment: ELISA, paxillin binding to immobilized Git-1; conditions: read-out: IC50, inhibition of interaction of GIT-1 with paxillin
interaction of GIT-1 with paxillin, sequence (P49023 whole entry): as the sequence (P49023 whole entry, the tested form may be a part) above
Description: as §1

[12] = biological target: T6, interaction of GIT-1 with leupaxin (Homo sapiens, UniProt O60711); experiment: ELISA, leupaxin binding to immobilized Git-1; conditions: read-out: IC50, inhibition of interaction of GIT-1 with leupaxin
T6 sequence (O60711 1-386): T1 sequence (O60711 1-386)
Description: as §1

[13] = test system: Jurkat T cells expressing a mutated α4-integrin (α4(Y991A)); experiment: Modified Boyden chamber migration, JB4-Y991A cells; format: cell-based
Description: as §2

## COc1cc(C2CC(=O)Nc3c2cc(Br)c2ccccc32)cc(OC)c1OC (centres unmarked) [6-B345TTQ]
[1]
  effect on the binding of FAT to leupaxin: no effect
THP-1 cells
  inhibition at 50 µM: 52.6%
Jurkat T cells [2]
  cytotoxicity (cell viability): not cytotoxic
Jurkat T cells [3]
  effect on αLβ2-mediated Jurkat T cell migration on ICAM-1: not significantly reduced
Jurkat T cells [4]
  spreading of Jurkat T cells: dose dependent increase
[5]; 10 μg/ml leupaxin, read-out: IC50, inhibition of leupaxin binding to α4-integrin
  IC50: 18 µM
[5]; increasing leupaxin, various inhibitor concentrations, model fit Graph Pad Prism 5.0
  nature of inhibition of the α4 leupaxin interaction: competitive inhibitor
[5]; mixed model fit
  α-value of mixed model of inhibition: ~2.958×10^12
[6]
  spreading of CHO wildtype cells: not increased
CHO-S998A cells
  spreading of CHO-S998A cells: increased the spreading of CHO-S998A cells to a level comparable with CHO-S998D cells
C57B1/6 mice; 16.5 mg/kg every 8-12 hours i.p., 48 hours after thioglycollate
  reduction of infiltration of peritoneal monocytes/macrophages: 50%
C57B1/6 mice; 16.5 mg/kg every 8-12 hours, 48 hours and 72 hours after thioglycollate
  recruitment of lymphocytes to the peritoneum: reduction was not statistically significant
C57B1/6 mice; 16.5 mg/kg every 8-12 hours, vs vehicle
  recruitment of neutrophils: no difference
[7]
  inhibition of the interaction of FAT with paxillin: did inhibit
Jurkat T cells [8]
  inhibition at 50 µM: 56.4%
[9]
  amount of α4 co-immunoprecipitated with paxillin: decreased with increasing concentrations
[10]
  IC50: 10.8 µM
[11]
  IC50: 2.4 µM
[12]
  IC50: 25 µM
[13]
  residual α4-dependent migration of α4(Y991A) Jurkat T cells: not further decreased

Source: patent US8987294B2, “Small molecule inhibitors of the α4-paxillin interaction” (The Regents of the University of California, priority 2009, dated 2015)
